Data published in ChEMBL document CHEMBL3507680, “University of Dundee, Gates Library screen for HepG2 cell viability”.

Experiment: Human HepG2 cell viability assay in 384 well format
Type: toxicity, cell-based
Set-up: dose 125 nL, time 70.5 hour; cytotoxicity at 70.5 h: concentration not given beside the values
Conditions: HepG2 cells, read-out: Inhibition

Row | SMILES | cytotoxicity at 70.5 h
1 | O=C(NC1CCCC1)c1ccc(COCC(F)(F)F)o1 | -0.375%
2 | CCOc1ccc(NC(=O)N(CCN(C)C)C(C)c2ccncc2)cc1 (stereo not drawn) | 13.6%
3 | CCOCCCNC(=O)C(NC(=O)Cc1cccs1)c1ccccc1 (stereo not drawn) | 4.71%
4 | O=C(NC1CCCCC1)c1ccc(COCC(F)(F)F)o1 | 19.8%
5 | CCC(=O)Nc1ccccc1Sc1nc(Br)nn1C | -8.59%
6 | Cn1nc(Br)nc1Sc1ccccc1NC(=O)C1CC1 | 1.89%
7 | CCCN1CCc2nc(SCc3ccc(F)cc3)[nH]c(=O)c2C1 | -3.74%
8 | CC(=O)Nc1c(C)noc1/C=C\c1ccc(S(=O)(=O)N2CCCC2)cc1 | -3.48%
9 | COC(=O)c1ccc(-c2ccc(/C=C3\C(=O)NC(=N)N3C)o2)cc1 | 12.1%
10 | COc1ccc(Cl)c(-c2noc3ncn(CCC(=O)O)c(=O)c23)c1 | -20.8%
11 | COC(=O)Cn1c(C)cc(=O)n2nc(-c3cccs3)nc12 | 13.3%
12 | Cc1cc(Cc2ccc(S(=O)(=O)N3CCCC3)cc2)c(=O)[nH]n1 | -23.4%
13 | CCOC(=O)CNC(=O)NCc1cc(C)n(-c2ccccc2OC)c1C | 14.4%
14 | COc1ccccc1-n1c(C)cc(CNC(=O)NC(C)C)c1C | -9.03%
15 | COc1ccc(Nc2nc(N)c(C(C)=O)s2)cc1Cl | -9.72%
16 | COc1cccc(CNc2c(O)c(=O)c2=O)c1 | -20.2%
17 | CC(=O)N1N=C(COc2ccc3c(c2)OCO3)OC1c1cccc(Cl)c1 (stereo not drawn) | -2.04%
18 | CN1CC=C(c2noc(CCC(=O)N3CCc4ccccc4C3)n2)CC1 | -15%
19 | COCCCNC(=O)N1CCN(C(=O)c2nsc3ccccc23)CC1 | -18.1%
20 | COCCCNC(=O)N1CCN(C(=O)c2nsc3ccc(C)cc23)CC1 | 20.4%
21 | COc1cnc(CSc2nnc(C)s2)cc1OCC(N)=O | 15.1%

Row | SMILES | cytotoxicity at 70.5 h
22 | CCN(CC)C(=O)CSc1nc2nc(C)ccc2o1 | 11.9%
23 | CC(c1ccncc1)N(CCN(C)C)C(=O)Nc1ccc(Cl)c(Cl)c1 (stereo not drawn) | -11.5%
24 | COC(=O)c1cccc(C(=O)NCc2ccco2)n1 | -15.9%
25 | O=C1COc2ccc(S(=O)(=O)NCCC3=CCCCC3)cc2N1 | 0.831%
26 | Nc1nnc(SCc2cc(=O)n3c4c(sc3n2)CCCC4)s1 | -8.05%
27 | Cc1n[nH]c2c1C(c1ccc(F)cc1)SCC(=O)N2 (stereo not drawn) | -4.92%
28 | O=C(Nc1ccc2c(c1)OCCO2)N1CCCC1c1ccco1 (stereo not drawn) | -10.5%
29 | CCc1ccccc1NCc1nc2[nH]c(C)c(C)c(=O)n2n1 | 10.8%
30 | Cc1cccc(NC(=O)Nc2c[nH]c(=O)[nH]c2=O)c1C | -1.56%
31 | O=c1cc(CSc2nnc[nH]2)nc2sc3c(n12)CCCC3 | -10.9%
32 | Cc1nnc(SCc2cc(=O)n3c4c(sc3n2)CCCC4)[nH]1 | -8.32%
33 | COCCNC(=O)c1cnc(N(C)C)nc1C | -5.03%
34 | CC(=O)c1cccc(NC(=O)c2cnc(N3CCN(C)CC3)nc2C)c1 | 12.8%
35 | CCC1CN(CC(=O)NCCN(CC)CC)c2ccccc2S1 (stereo not drawn) | -6.69%
36 | O=C(c1cccs1)N1CCN(Cc2cc(=O)c3ccccc3[nH]2)CC1 | -4.26%
37 | CCC(CC)C(=O)N1CCN(Cc2cc(=O)c3ccccc3[nH]2)CC1 | 7.24%
38 | COc1ccc(C)cc1NC(=O)Nc1cnc(O)nc1O | -6.34%
39 | Cc1nn(C)c2c(=O)n(CC(=O)NCc3ccccn3)ccc12 | 0.706%
40 | Cc1nn(C)c2c(=O)n(CC(=O)NCCC(C)C)ccc12 | -5.71%
41 | Cc1nn(C)c2c(=O)n(CC(=O)NCc3ccc(N(C)C)cc3)ccc12 | -0.296%
42 | COc1ccc(CNC(=O)Cn2ccc3sccc3c2=O)cc1 | 12.8%

Row | SMILES | cytotoxicity at 70.5 h
43 | CC(NC(=O)Cn1ccc2sccc2c1=O)c1ccccc1 (stereo not drawn) | -10.1%
44 | O=C(Cn1ccc2sccc2c1=O)NCc1ccc(F)cc1 | -9.4%
45 | O=C(Cn1ccc2sccc2c1=O)NCc1ccccc1F | -5.13%
46 | CCc1ccc(CNC(=O)Cn2ccc3sccc3c2=O)cc1 | 2.36%
47 | COC(=O)CSc1nnc(CCNC(=O)OC(C)(C)C)o1 | -4.92%
48 | CCOCCCNC(=O)CCCC(=O)n1nc(C)c2ccccc21 | -3.2%
49 | CC1=C(c2ccc(F)cc2)S(=O)(=O)N=C1N1CCc2ccccc21 | -4.74%
50 | O=C(NCCCN1CCOCC1)c1ccc(-n2ccc3ccccc32)s1 | -3.96%
51 | CCOc1nc2cnccc2n(CC(=O)Nc2ccccc2OC)c1=O | -7.54%
52 | O=C(CSC1=NS(=O)(=O)c2cc(F)ccc2N1)c1ccccc1 | -3.16%
53 | COc1cccc(NC(=O)c2nc3ccccc3n(C)c2=O)c1 | -6.23%
54 | COc1cc(CN2CCCCCC2c2cccs2)cc(OC)c1OC (stereo not drawn) | -9.84%
55 | Oc1ccccc1CN1CCCCCC1c1cccs1 (stereo not drawn) | -5.04%
56 | COC(=O)CNC(=O)N1CCN(c2nc3ccccc3n2C)CC1 | 26.4%
57 | CCS(=O)(=O)N1CCc2ccc(NC(=O)Nc3ccccc3C)cc21 | -11%
58 | CCS(=O)(=O)N1CCc2ccc(NC(=O)Nc3ccccc3)cc21 | 9.4%
59 | CCS(=O)(=O)N1CCc2ccc(NC(=O)Nc3cccc(C#N)c3)cc21 | 17.6%
60 | COC(=O)c1cccc(C(=O)N2CCN(c3ccc(Cl)cc3)CC2)n1 | -6.13%
61 | COC(=O)c1cccc(C(=O)N2CCN(c3ccc(OC)cc3)CC2)n1 | -7.54%
62 | O=C(Cc1ccsc1)NCC1Cn2nnc(-c3ccoc3)c2CO1 (stereo not drawn) | -4.44%
63 | COc1ccc(CC(=O)N2CCc3nc(C(=O)N(C)C)sc3CC2)cc1 | -4%

Row | SMILES | cytotoxicity at 70.5 h
64 | CC(C)N(C)Cc1nnc2n1CCCN(C(=O)C1CCCO1)C2 (stereo not drawn) | -7.64%
65 | O=C(C1CCCO1)N1CCCn2c(nnc2Cn2cccn2)C1 (stereo not drawn) | -10.9%
66 | CCC(=O)N1CCc2nc(N3CCOCC3)nc(N(C)C)c2CC1 | 35.1%
67 | CCn1cnnc1CNC(=O)N1CCN(c2nccs2)CC1 | -3.76%
68 | CC(NC(=O)CCn1cccn1)c1ccc2c(c1)OCCO2 (stereo not drawn) | 14.2%
69 | CCn1cnnc1CNC(=O)N1CCN(c2ccccc2Cl)CC1 | -3.38%
70 | CCn1cnnc1CNC(=O)N1CCN(c2ccc(OC)cc2)CC1 | -11.7%
71 | Cc1cc(C(=O)N2CCCC2)ccc1NCc1nc(CC(C)C)no1 | -9.73%
72 | CCn1cnnc1CNC(=O)N1CCN(c2ccccc2O)CC1 | -13.9%
73 | Cc1ccccc1-c1noc(CN2CCC(N3CCNC3=O)CC2)n1 | 40.4%
74 | Cc1cc(C)n(CC2CN(CC(=O)N3CCC3)CCO2)n1 (stereo not drawn) | -13.4%
75 | Cc1cc(C)n(CC2CN(CC(=O)N3CCNC3=O)CCO2)n1 (stereo not drawn) | -1.37%
76 | O=C(c1ccccc1Cl)N1CCN(CCc2ccccn2)CC1 | -5.74%
77 | COCCN1CC[C@H]2CN(c3cc(OC)ncn3)C[C@@H]2C1=O | 24.4%
78 | CC[C@@H]1N(CC2CC2)CCC[C@]12CCC(=O)N2 | -1.41%
79 | Cc1nc2c(c(NC(C)C)n1)CCN(C1CCOCC1)CC2 | 2.46%
80 | CN(C)C(=O)Cn1c2c(ccc1=O)CC(NCc1ccoc1)CC2 (stereo not drawn) | 1.44%
81 | COCCN1CCCC12CCN(Cc1cccnc1OC)CC2 | 31.2%
82 | COCCCN1CCCC12CCN(Cc1cccnc1OC)CC2 | 1.58%
83 | OCCN1CC2(CCN(CC3CC3)CC2)c2ccccc21 | 4.7%
